Reference: patent US7452479B2, “Chemical base for fuel cell engine heat exchange coolant/antifreeze comprising 1,3-propanediol” (Shell Oil Company, priority 2001, dated 2008)
Where two headings read alike, the source gives them in different places.

Legend:
Physical property data = format: physicochemical
ASTM D1177 freeze point = format: physicochemical
From the text: FIG. 1 illustrates the aqueous solution freeze point characteristics of the 1,3-propanediol and GM 6043 (EG). […] This could be an indication that actual protection against hard, damaging freezing is actually better, approaching the effective protection point of the EG-based product. […] We feel that the antifreeze properties of the chemistry are acceptable. Indeed a 50% solution would provide adequate protection against freezing in most geographies. TC in FIG. 1 is an internal designation for the PDO aqueous solutions at 50, 55, and 60 volume percent PDO.

| SMILES | Specific Gravity (Physical property data; 20° C.) | Specific Gravity (Physical property data) | Freeze protection (ASTM D1177 freeze point; 55% in water) | Appearance at the reported freeze point (ASTM D1177 freeze point; aqueous solution) |
| --- | --- | --- | --- | --- |
| CC(O)CO (centres unmarked) [PG, propylene glycol] | 1.032 |  |  |  |
| OCCO [EG, ethylene glycol] |  | 1.115 |  |  |
| OCCCO [PDO, 1,3-propanediol] | 1.0526 |  | equivalent to 50% EG | soft and slushy |
